Read-outs that look alike come from different tables or passages of the source.
How the values were obtained:
[1] = double blind, oral, PDR 58, 2004, cited from earlier work
[2] = Double blind comparison of oral lisuride and placebo in 20 patients with Parkinson's disease; conditions: up to maximum tolerance dose of 5 mg daily, immediate-release tablet, eight of 20 patients
Description: The dosage of other active substances was kept unchanged during the trial.

[3] = 20 cm^2 TTS, plasma
Description: The application site was the upper arm and changed from one arm to the other between two successive periods.

[4] = difference to placebo
[5] = cited from earlier work
[6] = Oral ropinirole trial, comparison of central side effects (Table 5); type: in vivo, human; conditions: difference to placebo, up to 24 mg (8 mg TID), 6 months
[7] = oral, cited from earlier work
[8] = difference to placebo (footnote: less than placebo), transdermal, 2 (20 cm^2) QOD, 14 weeks
[9] = difference to placebo, transdermal, 2 (20 cm^2) QOD, 14 weeks
[10] = transdermal, 2 (20 cm^2) QOD, 14 weeks, 335 Parkinsonism patients
[11] = oral, 4.5 mg or max. tol. dose, 7 weeks dose esc. +4 weeks
[12] = oral, 4.5 mg or max. tol. dose daily, 7 weeks dose esc. +4 weeks
[13] = up to 24 mg (8 mg TID) daily, 6 months

SMILES: CC(C)C[C@H]1C(=O)N2CCC[C@H]2[C@]2(O)O[C@](NC(=O)[C@@H]3C=C4c5cccc6[nH]c(Br)c(c56)C[C@H]4N(C)C3)(C(C)C)C(=O)N12 [Bromocriptine]
- GI side effects: Nausea/vomiting (%) ([1]; dose range 5.0-30.0 mg, n = 231): 43%

SMILES: C=CCN1C[C@H](C(=O)N(CCCN(C)C)C(=O)NCC)C[C@@H]2c3cccc4[nH]cc(c34)C[C@H]21 [Cabergoline]
- GI side effects: Nausea/vomiting (%) ([1]; dose range 0.25-1.0 mg, n = 221): 29.0%

SMILES: CCN(CC)C(=O)N[C@H]1C=C2c3cccc4[nH]cc(c34)CC2N(C)C1 (some centres unmarked) [Lisuride, lisuride]
- Gastrointestinal symptoms, in particular nausea (patients) [2]: 40%
- Transition level ([3]; First application): 32 pg/mL
- Peak level ([3]; Fourth application): 140 pg/mL
- Transition level ([3]; Fourth application): 32 pg/mL
- Peak level ([3]; Second application): 125 pg/mL
- Transition level ([3]; Second application): 23 pg/mL
- Peak level ([3]; Third application): 130 pg/mL
- Transition level ([3]; Third application): 31 pg/mL
- Other psych.* (amnesia, fear, abnormal dreams, nervousness, delusions, paranoid reactions, sleeplessness, transdermal, 2 (20 cm^2) QOD, 14 weeks): 8
- Skin reactions resulting in discontinuation Δ (difference to placebo): 11.3
- Dizziness Δ [8]: 0^♡
- Other psych.* Δ [8]: 0^♡
- Confusion Δ [9]: 1.2
- Drownsiness Δ [9]: 1.8
- Dyskinesias Δ [9]: 4.1
- Fatigue Δ [9]: 1
- Hallucinations Δ [9]: 3.6
- Hypotension Δ [9]: 1.2
- Nausea Δ [9]: 0.6
- Syncope Δ [9]: 0
- Vomiting Δ [9]: 0.6
- Skin reactions resulting in discontinuation (lisuride group, transdermal, 14 weeks): 12.5%
- Confusion [10]: 1.2
- Dizziness [10]: 0.6
- Drownsiness [10]: 3.6
- Dyskinesias [10]: 7.1
- Fatigue [10]: 1
- Hallucinations [10]: 5.4
- Hypotension [10]: 2.4
- Syncope [10]: 0
- Vomiting [10]: 1.2

SMILES: CCCN[C@H]1CCc2nc(N)sc2C1 [Pramipexol]
- Hallucinations Δ ([4]; 8 month trial): 13
- Confusion Δ [4, 11]: 3
- Dizziness Δ [4, 11]: 0.2
- Drownsiness Δ [4, 11]: 2
- Dyskinesias Δ [4, 11]: 10.2
- Fatigue Δ [4, 11]: 24.9
- Hypotension Δ [4, 11]: 6.5
- Nausea Δ [4, 11]: 2
- Other psych.* Δ [4, 11]: 12.4
- GI side effects: Nausea/vomiting (%) ([1]; dose range 0.375-4.5 mg, n = 388): 12.4%
- patients who reported hallucinations ([5]; 8 month trial): 17%
- Other psych.* ([5]; amnesia, fear, abnormal dreams, nervousness, delusions, paranoid reactions, sleeplessness, oral, 4.5 mg or max. tol. dose, 7 weeks dose esc. +4 weeks): 28.3
- Confusion [5, 12]: 10
- Dizziness [5, 12]: 2.9
- Drownsiness [5, 12]: 9
- Dyskinesias [5, 12]: 14.7
- Fatigue [5, 12]: 29.4
- Hypotension [5, 12]: 8.8
- Nausea [5, 12]: 8.8

SMILES: CCCN(CCC)CCc1cccc2c1CC(=O)N2 [Ropinirol]
- Confusion Δ [6]: 7
- Dizziness Δ [6]: 10
- Drownsiness Δ [6]: 12
- Dyskinesias Δ [6]: 21
- Hallucinations Δ [6]: 6
- Hypotension Δ [6]: 1
- Nausea Δ [6]: 12
- Other psych.* Δ [6]: 10
- Syncope Δ [6]: 1
- Vomiting Δ [6]: 3
- GI side effects: Nausea/vomiting (%) ([1]; dose range 0.5-5.0 mg, n = 157): 45.8%
- Other psych.* ([7]; amnesia, fear, abnormal dreams, nervousness, delusions, paranoid reactions, sleeplessness, up to 24 mg (8 mg TID), 6 months): 19
- Confusion [7, 13]: 9
- Dizziness [7, 13]: 26
- Drownsiness [7, 13]: 20
- Dyskinesias [7, 13]: 34
- Hallucinations [7, 13]: 10
- Hypotension [7, 13]: 2
- Nausea [7, 13]: 30
- Syncope [7, 13]: 3
- Vomiting [7, 13]: 7
- Fatigue ([7]; data from restless legs study): 8^♦

Source: patent US20100143475A1, “TRANSDERMAL THERAPEUTIC SYSTEM WITH TWO-PHASE RELEASE PROFILE” (priority 2006, published 2010)
